BindingDB's records for patent US20250320228 (Merck Patent, 2025)

Target: Mitogen-activated protein kinase kinase kinase kinase 1 (Homo sapiens, UniProt Q92918)
Experiment: HPK1 Kinase Assay
Method: A recombinant fusion protein consisting of full-length human HPK1 (MAP4K1) with an N-terminal Glutatione S-transferase (GST) tag was produced in insect cells Sf21 using the baculovirus expression system. GST-HPK1 protein was purified from cell lysates by glutathione Sepharose affinity chromatography. The assay is run in three continuous steps: 1) the HPK1 enzymatic kinase reaction, 2) an ATP depletion, and 3) the ADP detection, the steps 2 and 3 are performed with ADP-Glo™ Kinase Assay kit from Promega (V9101). Test compounds were prepared by 10-point serial dilution in dimethyl sulfoxide (DMSO) and 100 nL of each dilution was spotted onto a 384-well Optiplate (Perkin Elmer and Cat #6007299) by Labcyte Echo. 5 μL kinase reaction buffer (0.02% Brij-35, 2 mM DTT, 50 mM HEPES pH 7.5, MgCl2 10 mM, BSA 0.01% and β-glycerophosphate 12.5 mM) containing HPK1 (3.2 nM) enzyme was transferred to each well and incubated for 15 minutes at room temperature at 60% humidity. The enzymatic reaction was started by adding 5 μl of Start-Mix (10 μM ATP and 3.235 μM MBP). After 120 minutes, the reaction was stopped by adding 5 μL of ADP-Glo reagent (Promega, V9101) and incubating for 40 min. in the dark at 23° C. To determine the level of ADP, 10 μl ADP-Glo Detection solution was added and incubated for 1 hour at 23° C. in the dark. The plate was transferred to a Perkin Elmer EnVision (2104 Multilabel Reader) for luminescence detection and percent inhibition activity and IC50 value were determined using Genedata Screener.

Sequence of Mitogen-activated protein kinase kinase kinase kinase 1 (Q92918 whole entry): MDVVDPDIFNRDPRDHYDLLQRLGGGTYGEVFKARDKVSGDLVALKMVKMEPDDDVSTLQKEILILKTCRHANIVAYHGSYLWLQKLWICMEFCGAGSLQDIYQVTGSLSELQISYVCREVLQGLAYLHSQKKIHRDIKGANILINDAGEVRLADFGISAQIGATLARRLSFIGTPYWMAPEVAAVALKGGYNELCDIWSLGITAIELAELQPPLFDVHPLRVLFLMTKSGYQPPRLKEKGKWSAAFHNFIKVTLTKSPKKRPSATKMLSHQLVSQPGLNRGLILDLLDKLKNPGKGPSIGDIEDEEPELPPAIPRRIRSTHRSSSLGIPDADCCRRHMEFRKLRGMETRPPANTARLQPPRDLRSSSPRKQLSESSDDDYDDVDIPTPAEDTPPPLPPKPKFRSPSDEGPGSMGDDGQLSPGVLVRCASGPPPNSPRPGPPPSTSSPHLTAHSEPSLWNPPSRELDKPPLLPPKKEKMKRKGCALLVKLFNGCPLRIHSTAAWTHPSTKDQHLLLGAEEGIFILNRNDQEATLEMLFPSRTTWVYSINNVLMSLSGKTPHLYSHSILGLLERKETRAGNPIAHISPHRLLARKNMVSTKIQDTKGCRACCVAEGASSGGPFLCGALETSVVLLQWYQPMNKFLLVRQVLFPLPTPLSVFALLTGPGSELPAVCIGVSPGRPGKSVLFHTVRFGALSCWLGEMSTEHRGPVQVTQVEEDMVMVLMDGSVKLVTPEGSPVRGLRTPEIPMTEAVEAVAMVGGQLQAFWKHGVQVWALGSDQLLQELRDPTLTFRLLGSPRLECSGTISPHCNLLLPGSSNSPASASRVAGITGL

Row | SMILES | IC50
1 | COCc1n[nH]c(-c2cc(C(N)=O)c3ncnc(N[C@H]4CCCNC4)c3n2)n1 [US20250320228, Example 13] | > 1000 nM
2 | N#C[C@H]1COCCN1Cc1ccc(-c2cc(C(N)=O)c3ncnc(N[C@H]4CCCNC4)c3n2)cc1 [US20250320228, Example 14] | < 100 nM
3 | NC(=O)c1cc(-c2ccc(CN3CCOC[C@H]3C(F)(F)F)cc2)nc2c(N[C@H]3CCCNC3)ncnc12 [US20250320228, Example 15] | < 100 nM
4 | NC(=O)c1cc(-c2ccc(CN3CCOCC3)cc2)nc2c(NC34CNCC3C4)ncnc12 (stereo not given) [US20250320228, Example 20] | < 100 nM
5 | NC(=O)c1cc(-c2ccc(CN3CCOCC3)cc2)nc2c(N3CC[C@@H](F)[C@H](N)C3)ncnc12 [US20250320228, Example 22] | > 1000 nM
6 | C[C@@H](N)CNc1ncnc2c(C(N)=O)cc(-c3ccc(CN4CCOCC4)cc3)nc12 [US20250320228, Example 25] | < 100 nM
7 | NC(=O)c1cc(-c2ccc(CN3CCOCC3)cc2)nc2c(N[C@@H]3CNC[C@H](F)C3)ncnc12 [US20250320228, Example 26] | < 100 nM
8 | NC(=O)c1cc(-c2cc(F)c(OCC3(O)CCC3)c(F)c2)nc2c(N[C@H]3CCCNC3)ncnc12 [US20250320228, Example 39] | < 100 nM
9 | CN1CCc2cc(-c3cc(C(N)=O)c4ncnc(N[C@H]5CCCNC5)c4n3)nn2CC1=O [US20250320228, Example 45] | < 100 nM
10 | NC(=O)c1cc(-c2ccc(OC(F)(F)F)cc2)nc2c(N[C@@H]3CNC[C@H](F)C3)ncnc12 [US20250320228, Example 71] | < 100 nM
